We go through one compound from patent publication US8138351B2, “Treatment of duchenne muscular dystrophy” (Summit Corporation PLC, priority 2007, dated 2012).

The experiment has as its system Utrophin A promoter linked to a luciferase reporter gene (H2K/mdx/Utro A reporter cell line). The experiment is described as follows: Luciferase reporter assay (murine H2K cells). The format is cell-based, mouse. Particulars: final concentration of 10 μM, 48 hrs. The method, then: 1. Luciferase Reporter Assay (Murine […] Cells) The cell line used for the screen is an immortalized mdx mouse H2K cell line that has been stably transfected with a plasmid containing ≈5 kb fragment of the Utrophin A promoter including the first untranslated exon linked to a luciferase reporter gene (see FIG. 1). Under conditions of low temperature and interferon containing media, the cells remain as myoblasts. These are plated into 96 well plates and cultured in the presence of compound for three days. The level of luciferase is then determined by cell lysis and reading of the light output from the expressed luciferase gene utilising a plate luminometer. The H2K/mdx/Utro A Reporter Cell Line Maintenance The H2K/mdx/Utro A reporter cell line was passaged twice a week until ≦30% confluent. The cells were grown at 33° C. in the presence of 10% CO2. To remove the myoblasts for platting, they were incubated with Trypsin/EDTA until the monolayer started to detach. […] Cells were then lysed in situ following the manufacture's protocols (Promega Steady-Glo Luciferase Assay System (E2520), then counted for 10 seconds using a plate luminometer (Victor1420). Biological activity was assessed using the luciferase reporter assay in murine H2K cells, and is classified as follows: […]

For the compound `CCS(=O)(=O)c1ccc2oc(-c3ccc4ccccc4c3)nc2c1` [5-(ethylsulfonyl)-2-(naphthalen-2-yl)benzo[d]oxazole], the “Biological activity, luciferase reporter assay, relative to control” value was “+++ (Between 301% and 400% relative to control)”.
